pKi: −log10 of the molar value.
Target: T1, Leishmania donovani trypanothione reductase (LdTryR) (Leishmania donovani, UniProt P39050)
T1 construct: gene TPR; recombinant LdTryR
Experiment: spectrophotometric NADPH oxidation assay ([…] nm) on recombinant enzyme, Lineweaver-Burk kinetics
Format: biochemical

T1 sequence (P39050 whole entry): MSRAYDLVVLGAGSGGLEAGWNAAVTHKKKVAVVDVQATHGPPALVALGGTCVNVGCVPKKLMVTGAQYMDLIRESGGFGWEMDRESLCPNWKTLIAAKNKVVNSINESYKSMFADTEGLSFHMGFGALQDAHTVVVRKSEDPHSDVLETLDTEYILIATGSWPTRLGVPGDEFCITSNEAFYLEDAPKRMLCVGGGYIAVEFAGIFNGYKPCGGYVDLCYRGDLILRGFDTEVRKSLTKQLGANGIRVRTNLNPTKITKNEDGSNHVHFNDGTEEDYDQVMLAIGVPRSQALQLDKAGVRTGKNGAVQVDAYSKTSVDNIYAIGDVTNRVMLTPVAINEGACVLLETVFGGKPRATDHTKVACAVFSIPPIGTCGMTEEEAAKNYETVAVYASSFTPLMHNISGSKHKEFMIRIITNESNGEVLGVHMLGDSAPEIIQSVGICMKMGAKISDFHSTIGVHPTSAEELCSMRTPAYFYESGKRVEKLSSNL

## CC[C@H](CC[C@@H](C)[C@H]1CC[C@H]2[C@@H]3CC=C4C[C@@H](O)CC[C@]4(C)[C@H]3CC[C@]12C)C(C)C [β-sitosterolCCL, β-sitosterol]
  pKi: 5.07
